Data as given in US5047228A, “Nonionic 5-C-substituted 2,4,6-triiodoisophthalic acid derivatives” (Schering Aktiengesellschaft, priority 1980, dated 1991).

What was measured:
[1] = Iodine content; format: physicochemical
[2] = LD50 mouse (i.v.); details: in vivo, iv, injection rate 2 ml/min, concentration 300 mg/ml, observation period 24 h
Protocol: (§1) *Injection rate 2 ml/min; concentration 300 mg/ml; observation period 24

[3] = tested on: dog erythrocytes; assay: Erythrocyte damage (echinocyte formation in dog erythrocytes); format: cell-based; details: effect of metrizamide set at 10 as a standard, smaller number = higher compatibility
Protocol: The deformation of erythrocytes (erythrocyte damage) due to X-ray contrast media can be taken as a measure for the membrane-damaging effect of the compound. In this instance, the formation of echinocytes was measured in dog erythrocytes, setting the effect of metrizamide at 10 as a standard. A smaller number signifies a correspondingly higher compatibility.

[4] = Stability in heat sterilization; format: physicochemical
Description: The present invention comprises nonionic X-ray contrast media based on the opacifying compounds of this invention with novel basic structures. These novel opacifying compounds are distinguished by a number of advantages. They are derived from triiodinated aromatic basic components which themselves are hydrophilic and nontoxic. […] They are also distinguished by a high chemical stability, especially also under the conditions of heat sterilization.
Solutions of the compounds of this invention can thus also be sterilized in the usual way by heating to 120° C. at a physiological pH value. The solutions have a low osmotic pressure even at high iodine concentrations, compared with the state of the art ionic X-ray contrast media. This is especially a prerequisite for a good local compatibility.

[5] = Distribution coefficient butanol/buffer pH 7.6; format: physicochemical
Description: The distribution coefficient of a compound permits ascertainment of its hydrophilicity and thus its compatibility; the lower the value of the distribution coefficient, the higher the compatibility of the compound tested.

[6] = LD50 rat (i.v.); details: in vivo, iv, injection rate 2 ml/min, concentration 300 mg/ml, observation period 24 h
Protocol: as §1

SMILES	Iodine Content [1] [%]	LD50 at 24 h [2] [mg/kg]	Erythrocyte Damage [3]	Stable in Heat Sterilization [4]	Distribution Coefficient Butanol/Buffer pH 7.6 [5]	LD50 at 24 h [6] [mg/kg]
CC(=O)Nc1c(I)c(C(=O)N[C@H]2C(O)O[C@H](CO)[C@@H](O)[C@@H]2O)c(I)c(N(C)C(C)=O)c1I (stereo partly drawn) [A, reference compound]	48	12000	10	No	0.259	11000
CN(CC(O)CO)C(=O)c1c(I)c(C(=O)N(C)CC(O)CO)c(I)c(C(=O)N(C)CC(O)CO)c1I (stereo not drawn) [B, 2,4,6-triiodobenzene-1,3,5-tricarboxylic acid tris(2,3-dihydroxypropyl-N-methyl)triamide]	45	16000	2.1	Yes	0.064	11000
O=C(c1c(I)c(C(=O)N(CCO)CCO)c(I)c(C(=O)N(CCO)CCO)c1I)N(CCO)CCO [C, 2,4,6-triiodobenzene-1,3,5-tricarboxylic acid tris(bis-2-hydroxyethyl)triamide]	45	–	1.8	Yes	0.131	12000
CN(CC(O)CO)C(=O)c1c(I)c(C(N)=O)c(I)c(C(=O)N(C)CC(O)CO)c1I (stereo not drawn) [D, 2,4,6-triiodobenzene-1,3,5-tricarboxylic acid bis(2,3-dihydroxypropyl-N-methyl)triamide]	50	–	4.2	Yes	0.074	–
CN(CC(O)C(O)C(O)C(O)CO)C(=O)c1c(I)c(C(=O)N(C)CC(O)C(O)C(O)C(O)CO)c(I)c(C(=O)N(C)CC(O)C(O)C(O)C(O)CO)c1I (stereo not drawn) [E, 2,4,6-triiodobenzene-1,3,5-tricarboxylic acid tris(2,3,4,5,6-pentahydroxyhexyl-N-methyl)triamide]	34	–	< 0.3	Yes	< 0.001	–
CN(C)C(=O)c1c(I)c(C(=O)NCC(O)CO)c(I)c(C(=O)NCC(O)CO)c1I (stereo not drawn) [F, 2,4,6-triiodobenzene-1,3,5-tricarboxylic acid [(N,N-dimethyl)-bis(2,3-dihydroxypropyl)]-triamide]	50	14000	2.7	Yes	0.171	11000
CNC(=O)c1c(I)c(C(=O)NC(CO)C(O)CO)c(I)c(C(=O)NC(CO)C(O)CO)c1I (stereo not drawn) [G, 5-N-methylcarbamoyl-2,4,6-triiodoisophthalic acid bis(2,3-dihydroxy-1-hydroxymethylpropyl)diamide]	47	–	2.8	Yes	0.065	19000
